Assay results as given in patent US11639350B2, “Heteroaryldihydropyrimidine derivatives and methods of treating hepatitis B infections” (Janssen Pharmaceutica NV, priority 2018, dated 2023).
Where two headings read alike, the source gives them in different places.

Experiments:
HepG2.2.15 cells = experiment: Cytotoxicity determination in HepG2.2.15 cells (CCK-8); format: cell-based; conditions: 6 days of compound treatment, CCK-8, highest concentration 100 μM
In short: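 HepG2.2.15 cells seeded at 5,000 cells/well in 2% FBS medium, incubated overnight at 37° C., then treated 6 days with compounds (8 points, 3-fold dilutions, top 100 μM), medium refreshed once midway. CCK-8 added for 2.5 h; A450 read against 630 nm reference; CC50 calculated, averaged over repeats.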

HBV = HBV inhibitory activity: HBV DNA in the culture medium of HepG2.2.15 cells by q-PCR; format: cell-based; conditions: HepG2.2.15 cells, 6 days of compound treatment, HBV DNA in culture medium by q-PCR, highest concentration 10 μM, read-out: EC50
In short: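 HepG2.2.15 cells in 2% FBS medium, 40,000 per well, treated 6 days with compound (medium refreshed once), eight 3-fold dilutions from 10 μM top. HBV DNA extracted from culture medium and quantified by q-PCR; EC50 averaged over repeats. Cytotoxicity run in parallel at 5,000 cells per well, top 100 μM, giving CC50.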

| SMILES | CC50 (HepG2.2.15 cells) | EC50 (HBV) | EC50 (HBV; Hepatitis B virus, HepG2.2.15, 144 h) |
| --- | --- | --- | --- |
| COC(=O)C1=C(C2CCC(NS(C)(=O)=O)C2)NC(c2nccs2)=NC1c1cccc(F)c1Cl (single isomer, unassigned) [Compound 61B, Methyl 4-(2-chloro-3-fluorophenyl)-6-(3-(methylsulfonamido)-cyclopentyl)-2-(thiazol-2-yl)-1,4-dihydropyrimidine-5-carboxylate] | > 20 µM | 0.333 µM | – |
| COC(=O)C1=C(C2CCCN(S(C)(=O)=O)CC2)NC(c2nccs2)=NC1c1ccc(F)cc1Cl (single isomer, unassigned) [Compound 383D, Methyl 4-(2-chloro-4-fluorophenyl)-6-(1-(methylsulfonyl)azepan-4-yl)-2-(thiazol-2-yl)-1,4-dihydropyrimidine-5-carboxylate] | 31.5 µM | 0.148 µM | – |
| COC(=O)C1=C(C2C[C@@H]3CN(S(C)(=O)=O)C[C@@H]3C2)NC(c2nccs2)=NC1c1ccc(F)cc1Cl (single isomer, unassigned) [Compound 176D, Methyl 4-(2-chloro-4-fluorophenyl)-6-((cis)-2-(methylsulfonyl)-octahydrocyclopenta[c]pyrrol-5-yl)-2-(thiazol-2-yl)-1,4-dihydropyrimidine-5-carboxylate] | 11 µM | – | 0.7 µM |
| COC(=O)C1=C(C2COC(CO)C2)NC(c2nccs2)=NC1c1cccc(F)c1Cl (single isomer, unassigned) [Compound 219E, Methyl 4-(2-chloro-3-fluorophenyl)-6-(5-(hydroxymethyl)-tetrahydrofuran-3-yl)-2-(thiazol-2-yl)-1,4-dihydropyrimidine-5-carboxylate] | 51.4 µM | 0.134 µM | – |
| CCOC(=O)C1=C(C2CCN(S(=O)(=O)C3CC(C)(C(=O)O)C3)CC2)NC(c2nccs2)=NC1c1ccc(F)cc1Br (single isomer, unassigned) [Compound 282D, (cis)-3-((4-(6-(2-Bromo-4-fluorophenyl)-5-(ethoxycarbonyl)-2-(thiazol-2-yl)-3,6-dihydropyrimidin-4-yl)piperidin-1-yl)sulfonyl)-1-methylcyclobutanecarboxylic Acid] | 11.2 µM | 0.039 µM | – |
| CCOC(=O)C1=C(C2CCN(S(=O)(=O)CC3CC(C(=O)O)C3)CC2)NC(c2nccs2)=NC1c1ccc(F)c(F)c1Cl (stereo not shown) [Compound 480Y, 3-(((4-(6-(2-Chloro-3,4-difluorophenyl)-5-(ethoxycarbonyl)-2-(thiazol-2-yl)-3,6-dihydropyrimidin-4-yl)piperidin-1-yl)sulfonyl)methyl)cyclobutanecarboxylic Acid] | 10.2 µM | 0.011 µM | – |
| CCOC(=O)C1=C(C2CCN(S(=O)(=O)C3CC(C)(C(=O)O)C3)CC2)NC(c2nccs2)=NC1c1cccc(F)c1C (single isomer, unassigned) [Compound 429C, (trans)-3-((4-(−5-(Ethoxycarbonyl)-6-(3-fluoro-2-methylphenyl)-2-(thiazol-2-yl)-3,6-dihydropyrimidin-4-yl)piperidin-1-yl)sulfonyl)-1-methylcyclobutanecarboxylic Acid] | 25.5 µM | 0.066 µM | – |
| COC(=O)C1=C(C2CCN(S(=O)(=O)CC3(C)CCC(C(=O)O)CC3)CC2)NC(c2nccs2)=NC1c1ccc(F)cc1Cl (single isomer, unassigned) [Compound 450A, (cis)-4-(((4-(6-(2-Chloro-4-fluorophenyl)-5-(methoxycarbonyl)-2-(thiazol-2-yl)-3,6-dihydropyrimidin-4-yl)piperidin-1-yl)sulfonyl)methyl)-4-methylcyclohexanecarboxylic Acid] | 12.8 µM | 0.017 µM | – |
| CCCS(=O)(=O)N1CCC(C2=C(C(=O)OC)C(c3ccc(F)cc3Cl)N=C(c3nccs3)N2)C1 (single isomer, unassigned) [Compound 256D, Methyl 4-(2-chloro-4-fluorophenyl)-6-(−1-(propylsulfonyl)pyrrolidin-3-yl)-2-(thiazol-2-yl)-1,4-dihydropyrimidine-5-carboxylate] | 22.9 µM | 0.964 µM | – |
| COC(=O)C1=C(C2CCN(S(=O)(=O)C3CC(C)(C(=O)O)C3)CC2)NC(c2nccs2)=NC1c1ccc(F)cc1Br (single isomer, unassigned) [Compound 410C, trans-3-((4-(6-(2-Bromo-4-fluorophenyl)-5-(methoxycarbonyl)-2-(thiazol-2-yl)-3,6-dihydropyrimidin-4-yl)piperidin-1-yl)sulfonyl)-1-methylcyclobutanecarboxylic Acid] | 24.7 µM | 0.016 µM | – |
| COC(=O)C1=C([C@H]2CC[C@H](C(=O)OC)CC2)NC(c2nccs2)=NC1c1ccc(F)cc1Cl (stereo partly shown) [Compound 18X] | 27.9 µM | 0.042 µM | – |
| COC(=O)C1=C(C2CCN(S(=O)(=O)[C@H]3C[C@](C)(C(=O)O)C3)CC2)NC(c2nccs2)=NC1c1cccc(F)c1Cl (stereo partly drawn) [Compound 274A, (trans)-3-((4-(−6-(2-Chloro-3-fluorophenyl)-5-(methoxycarbonyl)-2-(thiazol-2-yl)-3,6-dihydropyrimidin-4-yl)piperidin-1-yl)sulfonyl)-1-methylcyclobutanecarboxylic Acid] | 31.4 µM | 0.042 µM | – |
| COC(=O)C1=C(C2CCN(S(=O)(=O)CC(=O)O)C2)NC(c2nccs2)=NC1c1ccc(F)cc1Cl (single isomer, unassigned) [Compound 214C, 2-((−3-(−6-(2-Chloro-4-fluorophenyl)-5-(methoxycarbonyl)-2-(thiazol-2-yl)-3,6-dihydropyrimidin-4-yl)pyrrolidin-1-yl)sulfonyl)acetic Acid] | > 100 µM | 0.784 µM | – |
| COC(=O)C1=C(C2CCN(S(=O)(=O)C3CCC(C)(C(=O)O)CC3)CC2)NC(c2nccs2)=NC1c1ccc(F)c(F)c1Cl (single isomer, unassigned) [Compound 210A, (trans)-4-((4-(6-(2-chloro-3,4-difluorophenyl)-5-(methoxycarbonyl)-2-(thiazol-2-yl)-3,6-dihydropyrimidin-4-yl)piperidin-1-yl)sulfonyl)-1-methylcyclohexanecarboxylic Acid] | 6 µM | 0.024 µM | – |
